Consider 2 compounds from patent US20190367449A1, “PHENYLCREATINE, ITS USE AND METHOD FOR ITS PRODUCTION” (priority 2017, published 2019).

Data set [1] can be described thus: Body weight of mice on administration of creatine and phenylcreatine. The note with it: 20 days daily into the stomach, creatine 0.3 mg per gram, phenylcreatine 50 mg per kg, control 6.4%. The format is in vivo. As for the experimental part:
In order to find out whether phenylcreatine is a functional analogue of creatine, and also how much its effect is related to the strength of creatine, the functional state of the mice was assessed, namely, the body weight was measured, activity and endurance in the test on white mongrel mice were assessed—males weighing 18-22 g.
Two experimental groups of mice and one control group (10 mice in each group) were selected. Initially, the animals were of equal mass. The animals were kept in accordance with the rules adopted by the European Convention for the Protection of Vertebrates used for experimental and other purposes (European Convention for the Protection of Vertebrates used for Experiments or for Other Scientific Purposes (EST No. 123), Strasbourg, 18 March 1986, M., 1990, 12 pp.). Animals were kept in standard vivarium conditions. The animals were killed by decapitation in accordance with the “Rules for carrying out work using experimental animals”, approved by order of the Ministry of Health of the USSR No. 742 of 13 Nov. 1984 (Bolshakov O P, Neznanov N G, Babakhnyan R V Didactic and ethical aspects of research on biomodels and on laboratory animals//Qualitative clinical practice. 2002. No. 1. P.58-61).
Within 20 days, the animals received an aqueous solution of creatine in a dosage of 0.3 mg per gram of weight. […]

Data set [2] has as its system children and adults with craniocerebral trauma (CCT). The conditions noted are these: six months, 400 mg/kg of body weight, cited from earlier work.
In data set [3] the test system is craniocerebral trauma in rats and mice. The note with it: cited from earlier work.
The subject of data set [4] is healthy men, having a sedentary lifestyle. The conditions noted are these: loading protocol followed by 11-week maintenance; for 4-12 weeks; cited from earlier work.
The test system of the next data set is untrained subjects. The conditions noted are these: creatine in combination with carbohydrates, 5 days before and 14 days after training; cited from earlier work.
A further data set deals with white mongrel mice. Nature of the data set: Endurance of mice in the treadmill test (running to complete exhaustion). Type of data set: in vivo.
The subject of data set [5] is adrenal arrhythmia (extrasystole) in rats. Put plainly: Model of adrenal arrhythmia (extrasystole) in rats. The format is in vivo. The text has this:
One of the most important factors of arrhythmogenesis and the appearance of extrasystoles is the activation of the sympathoadrenal system. This circumstance determined the necessity of investigating phenylcreatine, proposed by the author of the present invention, on the model of adrenal arrhythmia (extrasystole) in rats (Kushakovsky M S, Heart arrhythmias: a guide for physicians, St. Petersburg, Hippocrates 1992).
In a control series of experiments, in all animals, 12 seconds after injection of epinephrine hydrochloride at a dose of […], polytopic ventricular extrasystole occurred in all animals. The number of ventricular extrasystoles before transition to tachycardia averaged 32±6. The duration of such arrhythmias was 80±21 seconds. In 50% of cases, it passed into the ventricular tachycardia. The duration of tachycardia was, on average, 86±12 seconds.
With the introduction of phenylcreatine, proposed by the present inventor in an amount of 20 mg per animal, half an hour before adrenaline hydrochloride, the number of ventricular extrasystoles was 12±4. The duration of the arrhythmia was 60±14 seconds.

For the next data set, the system named is male Wistar rats. Put plainly: Nootropic action in a shuttle maze, old rats. Type of data set: in vivo. The conditions noted are these: old rats 25 months. The procedure: The experiments were performed on male Wistar rats born in September 2014 (experiments were conducted in November 2016). The animals were kept in standard plastic cells at an air temperature of 21-23° C. They received a balanced granular food and drinking water without restrictions. The work was carried out in compliance with the principles of the Helsinki Declaration on Humane Treatment of Animals.
Rats were divided into 2 groups. The rats of the first test group received 10 mg of phenylcreatine per animal daily for a month with drinking water. The rats of the second test group received water. As a control in the experiment, rats born in May 2016 (the third group, young rats) were used.
In the experiment, a shuttle maze was used to evaluate neuropsychiatric processes, primarily cognitive processes (Navakatikyan M A, Platonov L L, 1988). At the end of the labyrinth there was a food reinforcement (a piece of cheese with a mass of 200 mg).
The time of the experiment to find the exit from the labyrinth was 5 minutes. During the experiment, the time of passing the labyrinth, the number of rats reaching the end of the labyrinth, the number of vertical racks were recorded.

Data set [6] in a line: Negative effects in all the studies conducted. The format is in vivo. The text has this: It should also be noted that, with all the studies conducted, the negative effects of phenylcreatine according to the invention were not detected, which indicates its safety.
Data set [7] deals with supraventricular extrasystoles. Put plainly: Holter monitoring of supraventricular extrasystoles in a person taking phenylcreatine. Type of data set: in vivo, human. The conditions noted are these: 2 mg per 1 kg per day for 14 days. As for the experimental part: Additionally, the following study was carried out. Professional […] (15 years of experience in power triathlon). Supraventricular extrasystoles with a frequency of 4 times in 24 hours were observed according to holter monitoring. Extrasystoles were very poorly tolerated, there were complaints of discomfort and a decrease in the quality of life (neurosis-like condition). They took phenylcreatine in an amount of 2 mg per 1 kg per day, for 14 days.

With `CN(CC(=O)O)C(=N)N` [creatine, 2-(methylguanine)-ethane acid], the Weight gain in data set [1] stood at 9%. The Frequency of fatigue in data set [2] (reduced from 82.4%) was 11.1%. Moreover, in [2] (reduced from 88.9 percent), the Frequency of dizziness is given as 43.8%. The Frequency of headaches in data set [2] (reduced from 93.8%) is listed as 11.1%. Moreover, the Subsequent injuries result in data set [3] (dietary consumption of 1% creatine for four weeks) is reported as “halved”. In addition, the “Reduction of the severity of craniocerebral trauma” value in [3] (injections of creatine 3 g/kg for up to five days before trauma) is 3-36%. Moreover, the “Reduction of the glucose response in glucose tolerance test” value in data set [4] is recorded as 11-22%. In the data set with untrained subjects, the “Isokinetic muscle strength, greater than with carbohydrates only” value was 10% and the “Isometric muscle strength, greater than with carbohydrates only” value is 21%.
Regarding `N=C(N)N(CC(=O)O)Cc1ccccc1` [phenylcreatine, N-benzyl-N-carbamimidoylglycine], the Weight gain in data set [1] is given as 15.4%. Moreover, the “Effect on endurance in the absence of sleep” value with white mongrel mice is given as “persisted even in the absence of sleep”. Besides, the “Number of ventricular extrasystoles” value in [5] (20 mg per animal half an hour before adrenaline hydrochloride, control 32±6) was found to be 12±4. For the same compound, in [5] (20 mg per animal half an hour before adrenaline hydrochloride, control 80±21), the “Duration of the arrhythmia” value turned out to be 60 ± 14 s. In [5] (20 mg per animal, control 50% of cases), the Transition to tachycardia entry was “no transition to tachycardia”. Besides, the “Number of vertical rearings per minute” value in the data set with male Wistar rats (10 mg per animal daily for a month with drinking water, untreated old rats 2±0.56) amounted to 1.2±0.44. Besides, the “The transit time of the labyrinth” value in the data set with male Wistar rats (10 mg per animal daily for a month, untreated old rats 5±0.42) came out at 2 ± 0.22 min. Further, in the data set with male Wistar rats (10 mg per animal daily for a month, untreated old rats 10%), the “The number of rats reaching the end of the labyrinth in 5 minutes” value came out at 50%. Moreover, the Negative effects entry in data set [6] is on record as “not detected”. For the same compound, the “Holter monitoring within 3 months after the course” value in data set [7] is reported as “does not fix supraventricular extrasystoles”. Moreover, the “Extrasystoles after the course” value in data set [7] (before: 4 times in 24 hours) is reported as “extrasystoles completely disappeared”.
